Experimental data as given in patent US20230105103A1, “THERAPEUTIC MOLECULES FOR COMBATING SEPSIS” (CENTRE FOR CELLULAR AND MOLECULAR PLATFORMS, priority 2019, published 2023).
Entries after “also recorded” stand apart in the source; their conditions may differ.

How the values were obtained:
CLP mice = experiment: Plasma cytokine levels in CLP mice (Bio-Plex multiplex assay); assay type: in vivo; details: for plasma IL-6 levels: 6 hours post intervention, versus untreated, FIG. 5C; for levels of IL-1b over time / levels of MCP-1 over time / levels of TNF-α over time: individual CLP mice, 6 hours versus 48 hours post treatment
Description: (§1) The CLP study with 7-9 week old C57BL/6 or BALB/c males was conducted, at animal house facility at TheraIndx Lifesciences Pvt. Ltd. (Bangalore, India) and Institute of Life Sciences (Bhubaneswar, India) respectively, in accordance with ethical practices laid down in the CPCSEA guidelines for animal care and use (CPCSEA, 2003). The Institutional Animals Ethics Committee (IAEC) of the test facility approved the studies. The CLP was performed as described before (Rittirsch et al., 2009; Toscano et al., 2011). Sham control mice had undergone surgery with ceacal manipulations without ligation and puncture. About 500 μl saline was administered subcutaneously immediately after surgery. Tramadol (about 20 mg/kg) was injected subcutaneously for post-operative analgesia. BALB/c mice were injected with single IP close of about 500 μg GA132 (GA is the internal code which has been used by the inventors of the present invention) while C57BL/6 mice received single IP dose of about 300 μg or about 700 μg GA132 6 hours post CLP. A separate group of C57BL/6 mice received single IP dose of about 250 μg of 6-mer, 7-mer or 8-mer at either 6 hour or 24 hour post CLP. All groups except the CLP alone (control) received a single dose of standard antibiotics (amoxicillin and clavulanate) 6 hour post CLP. Control group was injected with saline solution. Total of 92 C57BL/6 and 18 BALB/c mice were used in the study.
The Mutiplex immunoassay for Human and Mouse IL-1b, IL-6, IL-10, TNF-α and MCP-1 were purchased from Bio-Rad. For human cytokines, 1×10^6 PBMCs were seeded in 24 well plate a day before and treated with 100 ng/ml LPS or 50 μg/ml GA132 for 24 hours. The culture supernatant from three independent biological replicates was collected and used for the assay without dilution. For mice cytokines, the plasma samples from mice were collected 6 or 48 hours post treatment and diluted in PBS (Phosphate Buffered Saline) in 1:2 before assay. The assay was performed as per manufacturers' method and the beads were read and analyzed in Bio-Plex® MAGRIX™ Multiplex Reader (Bio-Rad) (https://www.bio-rad.com/webroot/web/pdg/lsr/literature/10014905.pdf).

[1] = system: CLP model of sepsis in mice; experiment: CLP study, survival of mice treated with chito-oligomers; assay type: in vivo; details: for protection over 'Antibiotic-alone' group: intervention at 6 hours, 7 days; for survival over 7 days: intervention at 6 hours post-surgery, about 250 μg single IP dose with antibiotics, FIG. 5A
Description: as §1, with “Sham control mice had undergone surgery with ceacal manipulations without ligation and puncture.” left out, “BALB/c mice were injected with single IP close of about 500 μg GA132 (GA is the internal code which has been used by the inventors of the present invention) while C57BL/6 mice received single IP dose of about 300 μg or about 700 μg GA132 6 hours post CLP.” left out
Experimental data were analyzed using GraphPad Prism 8 (GraphPad Software, Inc.). Kruskal-Wallis test and one way ANOVA test was used for analysis of cytokines and reporter assay values. Log-rank (Mantel-Cox) test was utilized for survival analysis. P-values, P<0.05 were considered statistically significant and are denoted by […] if calculated P-values were lower than P=0.05.

TLR2 [2] = target: T1, TLR2 (Homo sapiens, UniProt O60603); experiment: HEK-Blue TLR2 reporter assay (NF-kb and AP-1 driven SEAP); assay type: cell-based; parameters: host or cells: HEK293 (HEK-Blue TLR2 reporter cells)
Excerpt: (§2) P1 fraction tested on reporter cell lines where TLR2, TLR4 or TLR3 is expressed in HEK293 cells and activation of the receptors is observed by NP-kB and AP-1 promoter driven SEAP enzyme secretion.
(§3) HEK-Blue TLR2, HEK-Blue TLR3 and HEK-Blue TLR4 reporter cells expressing SEAP (secreted embryonic alkaline phosphatase) enzyme under NF-kb and AP-1 promoter (Cat. no.# hkb-htlr2, hkb-htlr3 and hkb-htlr4) were purchased from InvivoGen (USA). Human Peripheral blood mononuclear cells (PBMCs) (Cat. no.# CL003-25) were purchased from Himedia laboratories (India). HEK based cells and PBMCs were cultured DMEM and RPMI media, respectively. The cells were maintained at 37° C. incubator with 5% CO2. The culture media was supplemented with 10% Fetal Calf Serum (Gibco) along with standard antibiotics. HEK-Blue selection antibiotics (InvivoGen, Cat. no.# hb-sel, ant-zn and ant-bl) were added as per manufacturers' instructions.
(§4) 2×10^4 HEK-Blue reporter cells were seeded, in each well of a 96 well plate, in HEK-Blue detection media (InvivoGen, Cat. no.# hb-det3) along with the 50 μg/ml of the chito-oligomers. […] The treated cells were incubated at about 37° C. for about 16 hours and absorbance (O.D.) was measured at 620 nm in either TECAN Infinite® 200 PRO or Thermo Scientific Varioskan LUX multimode reader.
Target sequence in this assay (O60603 21-784): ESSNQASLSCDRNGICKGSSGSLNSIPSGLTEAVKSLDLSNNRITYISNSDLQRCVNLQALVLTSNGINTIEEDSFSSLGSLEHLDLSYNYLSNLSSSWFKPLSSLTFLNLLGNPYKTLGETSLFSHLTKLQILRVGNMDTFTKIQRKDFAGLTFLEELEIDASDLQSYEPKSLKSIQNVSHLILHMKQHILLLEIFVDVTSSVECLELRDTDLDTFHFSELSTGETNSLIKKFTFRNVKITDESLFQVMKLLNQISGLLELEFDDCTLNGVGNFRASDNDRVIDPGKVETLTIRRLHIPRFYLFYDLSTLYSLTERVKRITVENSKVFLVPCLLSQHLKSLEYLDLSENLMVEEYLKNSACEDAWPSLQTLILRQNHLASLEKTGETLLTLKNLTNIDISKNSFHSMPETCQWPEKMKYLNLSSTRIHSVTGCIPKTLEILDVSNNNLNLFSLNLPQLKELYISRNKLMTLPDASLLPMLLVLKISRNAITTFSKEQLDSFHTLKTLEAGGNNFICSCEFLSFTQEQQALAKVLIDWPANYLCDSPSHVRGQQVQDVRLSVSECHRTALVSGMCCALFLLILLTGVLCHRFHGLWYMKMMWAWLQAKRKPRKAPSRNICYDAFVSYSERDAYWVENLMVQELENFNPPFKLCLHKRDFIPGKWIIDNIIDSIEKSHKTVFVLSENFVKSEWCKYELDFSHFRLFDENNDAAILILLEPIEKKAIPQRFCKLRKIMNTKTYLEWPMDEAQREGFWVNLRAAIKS

TLR2 [3] = target: T1, TLR2; details: Das et al., 2019; cited from earlier work
Target sequence in this assay (O60603 21-784, species assumed): as the sequence (O60603 21-784) above

TLR3 = TLR3 (Homo sapiens, UniProt O15455); details: P1 fraction, HEK293 reporter cells, FIG. 7
Excerpt: as §2, §3, §4

TLR4 = target: T2, TLR4 (Homo sapiens, UniProt O00206); experiment: HEK-Blue TLR4 reporter assay (NF-kb and AP-1 driven SEAP); assay type: cell-based; details: P1 fraction, HEK293 reporter cells, FIG. 7
T2 construct: host or cells: HEK293 (HEK-Blue TLR4 reporter cells)
T2 sequence (O00206 24-839): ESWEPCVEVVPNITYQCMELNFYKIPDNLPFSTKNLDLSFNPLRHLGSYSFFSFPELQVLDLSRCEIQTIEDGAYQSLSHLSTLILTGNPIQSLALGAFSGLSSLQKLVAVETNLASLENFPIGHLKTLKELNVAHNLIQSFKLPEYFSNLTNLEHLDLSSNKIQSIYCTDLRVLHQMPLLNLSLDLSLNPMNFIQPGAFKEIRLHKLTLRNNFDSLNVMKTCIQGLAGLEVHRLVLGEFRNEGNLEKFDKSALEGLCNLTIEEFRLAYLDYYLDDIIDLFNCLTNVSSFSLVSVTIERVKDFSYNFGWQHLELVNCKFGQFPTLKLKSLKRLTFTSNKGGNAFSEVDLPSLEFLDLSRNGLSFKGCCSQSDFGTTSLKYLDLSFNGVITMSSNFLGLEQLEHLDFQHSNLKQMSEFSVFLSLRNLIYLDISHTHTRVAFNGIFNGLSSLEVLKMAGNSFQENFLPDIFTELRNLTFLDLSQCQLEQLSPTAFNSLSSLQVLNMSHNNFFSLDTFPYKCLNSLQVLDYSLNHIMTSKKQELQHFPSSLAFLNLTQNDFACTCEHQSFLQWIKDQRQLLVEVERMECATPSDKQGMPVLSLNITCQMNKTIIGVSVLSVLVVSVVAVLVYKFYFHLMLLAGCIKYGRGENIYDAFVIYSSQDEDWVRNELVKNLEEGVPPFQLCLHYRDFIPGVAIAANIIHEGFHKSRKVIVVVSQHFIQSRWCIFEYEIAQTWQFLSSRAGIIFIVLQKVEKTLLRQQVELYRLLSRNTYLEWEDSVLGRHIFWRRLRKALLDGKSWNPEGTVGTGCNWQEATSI
T2 sequence (Q9Y6Y9 17-160 partner limits assumed): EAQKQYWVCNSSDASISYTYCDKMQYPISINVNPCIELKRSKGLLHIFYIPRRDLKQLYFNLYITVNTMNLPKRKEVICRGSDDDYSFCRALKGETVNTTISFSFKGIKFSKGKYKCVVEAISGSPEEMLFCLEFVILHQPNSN
Excerpt: as §2, §3, §4

[4] = system: septic mice in the CLP model (polymicrobial sepsis); experiment: Survival of septic mice in CLP model, native protein; assay type: in vivo
Description: About 80% of mice that received 15-35 μg of protein and about 60% mice that received 1-20 μg of protein survived even up to 16 days. More preferably, 80% of mice that received 25 μg of protein and 60% mice that received 10 μg of protein survived even up to 16 days. All the mice in the control group had died in the same duration.

THP-1 cells = THP-1 cells treated with P1 and Pp, cytokine secretion; assay type: cell-based, human
Description: THP-1 cells (human acute monocytic leukemia cell line) were procured from ATCC (Cat. No# ATCC® TIB-202™). The THP-1 cells were treated with the P1 and Pp to check for any pro-inflammatory activity.

IL-18 = details: monocytes, in vitro, FIG. 8
Excerpt: Increased levels of IL-18 have also been associated with higher mortality in sepsis. In endotoxemia mice models IL-18 knockout mice show better survival than the wild type indicating a role of IL18 in disease severity (Berghe T V, 2014 Eidt M V, 2016).

[5] = system: septic mice in endotoxemia model; experiment: Survival in endotoxemia model (LPS injection), native protein; assay type: in vivo; details: treated 6 hours post LPS injection, up to ten days, group G2
Description: In this model, post LPS Injection (i.e., 6 hours) animals were treated with vehicle and test agents amongst different groups G1-G5 as specified in figure. G2 (LPS+DIA-1) was treated with the P1 protein while G3 and G4 were other test protein used as experimental controls.

[6] = C57BL/6 CLP mice, single dose at 24 hours post-surgery
[7] = CLP mice, 48 hours, versus untreated group, FIG. 5D

## CC(=O)N[C@H]1[C@H](O[C@H]2[C@H](O)[C@@H](NC(C)=O)[C@H](O[C@H]3[C@H](O)[C@@H](NC(C)=O)C(O)O[C@@H]3CO)O[C@@H]2CO)O[C@H](CO)[C@@H](O[C@@H]2O[C@H](CO)[C@@H](O[C@@H]3O[C@H](CO)[C@@H](O[C@@H]4O[C@H](CO)[C@@H](O)[C@H](O)[C@H]4NC(C)=O)[C@H](O)[C@H]3NC(C)=O)[C@H](O)[C@H]2NC(C)=O)[C@@H]1O (some centres unmarked) [6-mer, Hexa-N-acetyl Chitohexaose]
CLP mice; CLP mice
  plasma IL-6 levels: significant decrease
CLP mice
  levels of IL-1b over time: no effect
  levels of MCP-1 over time: no effect
  levels of TNF-α over time: no effect
[1]; C57BL/6 CLP mice
  protection over 'Antibiotic-alone' group: no additional protection
[1]; [6]
  survival compared to 'Antibiotic alone' group: no change

## CC(=O)N[C@H]1[C@H](O[C@H]2[C@H](O)[C@@H](NC(C)=O)[C@H](O[C@H]3[C@H](O)[C@@H](NC(C)=O)[C@H](O[C@H]4[C@H](O)[C@@H](NC(C)=O)C(O)O[C@@H]4CO)O[C@@H]3CO)O[C@@H]2CO)O[C@H](CO)[C@@H](O[C@@H]2O[C@H](CO)[C@@H](O[C@@H]3O[C@H](CO)[C@@H](O[C@@H]4O[C@H](CO)[C@@H](O)[C@H](O)[C@H]4NC(C)=O)[C@H](O)[C@H]3NC(C)=O)[C@H](O)[C@H]2NC(C)=O)[C@@H]1O (some centres unmarked) [7-mer, Hepta-N-acetyl Chitoheptaose]
CLP mice; CLP mice
  plasma IL-6 levels: significant decrease
CLP mice; [7]
  plasma IL-1b: significant reduction
  plasma IL-10: significant reduction
  plasma MCP-1: significant reduction
  plasma TNF-α: significant reduction
CLP mice
  levels of IL-1b over time: significant reduction
  levels of MCP-1 over time: significant reduction
  levels of TNF-α over time: significant reduction
[1]; C57BL/6 CLP mice
  survival over 7 days: around 90%
[1]; C57BL/6 CLP mice, single dose at 24 hours post-surgery, FIG. 5B
  survival up to 7 days: 80%
[1]; single dose of 200-250 μg 6 hours and 24 hours post-CLP, till day 7, FIG. 4
  mortality: significant mortality reduction
TLR2 [2]; HEK-Blue TLR2 reporter cells, 50 μg/ml
  activity in TLR2 reporter cells compared between oligomers: significantly higher than 8-mer

## CC(=O)N[C@H]1[C@H](O[C@H]2[C@H](O)[C@@H](NC(C)=O)[C@H](O[C@H]3[C@H](O)[C@@H](NC(C)=O)[C@H](O[C@H]4[C@H](O)[C@@H](NC(C)=O)C(O)O[C@@H]4CO)O[C@@H]3CO)O[C@@H]2CO)O[C@H](CO)[C@@H](O[C@@H]2O[C@H](CO)[C@@H](O[C@@H]3O[C@H](CO)[C@@H](O[C@@H]4O[C@H](CO)[C@@H](O[C@@H]5O[C@H](CO)[C@@H](O)[C@H](O)[C@H]5NC(C)=O)[C@H](O)[C@H]4NC(C)=O)[C@H](O)[C@H]3NC(C)=O)[C@H](O)[C@H]2NC(C)=O)[C@@H]1O (some centres unmarked) [8-mer, Octa-N-acetyl Chitooctaose]
CLP mice; CLP mice
  plasma IL-6 levels: reduced in 8-mer treated mice when compare to untreated mice but the difference was not found to be significant
CLP mice
  levels of IL-1b over time: increase
  levels of MCP-1 over time: increase
  levels of TNF-α over time: increase
[1]; C57BL/6 CLP mice
  survival over 7 days: 40%
  protection over 'Antibiotic-alone' group: no additional protection
[1]; [6]
  survival compared to 'Antibiotic alone' group: no change

## CC(=O)N[C@H]1[C@H](OC2CCCCC2)O[C@H](CO)[C@@H](O[C@@H]2O[C@H](CO)[C@@H](O)[C@H](O)[C@H]2NC(C)=O)[C@@H]1O [AVR-25]
TLR2 [3]
  binding affinity to TLR2: did not show any binding affinity

## P1: Major G75 size exclusion peak of AgW from Setaria digitata, a pure glycoprotein identified as Heat Shock Protein 70 (SEQ. ID NO. 1)
TLR3
  activation of TLR3 (SEAP secretion): no activation
TLR4
  activation of TLR4 (SEAP secretion): activates; also recorded: consistently activating
[4]; 10 μg of protein
  mice survived up to 16 days: 60%
[4]; 25 μg of protein
  mice survived up to 16 days: 80%
[4]; 1-20 μg of protein
  mice survived up to 16 days: about 60%
[4]; 15-35 μg of protein
  mice survived up to 16 days: About 80%
THP-1 cells; THP-1 cells
  alternate activation marker CLEC10A or CD301: reduces
THP-1 cells; THP-1 cells, FIG. 1B
  secretion of pro-inflammatory cytokines: highly active
THP-1 cells; THP-1 cells, FIG. 1C
  secretion of IL-1b: promote secretion
  secretion of IL-6: promote secretion
  secretion of IL-10: promote secretion
  secretion of MCP-1: promote secretion
  secretion of TNF-α: promote secretion
THP-1 cells; THP-1 monocytic cells, FIG. 1C
  induction of cytokines: activated the THP-1 monocytic cells
IL-18
  reduction in IL-18 transcript levels: more than 60%
[5]
  survival: 66%
TLR2 [2]; P1 fraction, HEK293 reporter cells, FIG. 7
  activation of TLR2 (SEAP secretion): activates; also recorded: consistently activating

## amoxicillin and clavulanate [Antibiotic—alone, reference compound]
[1]; C57BL/6 CLP mice
  survival over 7 days: 60%
